Source: PubChem BioAssay (NCI)
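Cells were grown in 96-well plates and exposed to each compound for 48 hours at five concentrations; endpoints were interpolated linearly between bracketing concentrations, or set to the highest concentration if not reached. GI50 is the concentration that inhibits growth by half. TGI: concentration producing complete growth inhibition.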

What was measured:
Test in all cases: NCI anticancer screen, dose series, 48 h
786-0 renal = system: 786-0 renal
A498 renal = system: A498 renal
A549 NSCLC = system: A549 NSCLC
ACHN renal = system: ACHN renal
BT-549 breast = system: BT-549 breast
CAKI-1 renal = system: CAKI-1 renal
CCRF-CEM leukemia = system: CCRF-CEM leukemia
COLO 205 colon = system: COLO 205 colon
DU-145 prostate = system: DU-145 prostate
EKVX NSCLC = system: EKVX NSCLC
HCC-2998 colon = system: HCC-2998 colon
HCT-116 colon = system: HCT-116 colon
HCT-15 colon = system: HCT-15 colon
HL-60(TB) leukemia = system: HL-60(TB) leukemia
HOP-62 NSCLC = system: HOP-62 NSCLC
HOP-92 NSCLC = system: HOP-92 NSCLC
HS 578T breast = system: HS 578T breast
HT29 colon = system: HT29 colon
IGROV1 ovarian = system: IGROV1 ovarian
K-562 leukemia = system: K-562 leukemia
KM12 colon = system: KM12 colon
LOX IMVI melanoma = system: LOX IMVI melanoma
M14 melanoma = system: M14 melanoma
MALME-3M melanoma = system: MALME-3M melanoma
MCF7 breast = system: MCF7 breast
MDA-MB-231 breast = system: MDA-MB-231 breast
MDA-MB-435 = system: MDA-MB-435
MDA-MB-468 breast = system: MDA-MB-468 breast
MOLT-4 leukemia = system: MOLT-4 leukemia
NCI-H226 lung = system: NCI-H226 lung
NCI-H23 lung = system: NCI-H23 lung
NCI-H460 lung = system: NCI-H460 lung
NCI-H522 lung = system: NCI-H522 lung
NCI/ADR-RES ovarian = system: NCI/ADR-RES ovarian
OVCAR-3 ovarian = system: OVCAR-3 ovarian
OVCAR-4 ovarian = system: OVCAR-4 ovarian
OVCAR-5 ovarian = system: OVCAR-5 ovarian
OVCAR-8 ovarian = system: OVCAR-8 ovarian
PC-3 prostate = system: PC-3 prostate
RPMI-8226 leukemia = system: RPMI-8226 leukemia
RXF 393 renal = system: RXF 393 renal
SF-268 CNS = system: SF-268 CNS
SF-295 CNS = system: SF-295 CNS
SF-539 CNS = system: SF-539 CNS
SK-MEL-2 melanoma = system: SK-MEL-2 melanoma
SK-MEL-28 melanoma = system: SK-MEL-28 melanoma
SK-MEL-5 melanoma = system: SK-MEL-5 melanoma
SK-OV-3 ovarian = system: SK-OV-3 ovarian
SN12C renal = system: SN12C renal
SNB-19 CNS = system: SNB-19 CNS
SNB-75 CNS = system: SNB-75 CNS
SR leukemia = system: SR leukemia
SW-620 colon = system: SW-620 colon
T-47D breast = system: T-47D breast
TK-10 renal = system: TK-10 renal
U251 CNS = system: U251 CNS
UACC-257 melanoma = system: UACC-257 melanoma
UACC-62 melanoma = system: UACC-62 melanoma
UO-31 renal = system: UO-31 renal

With `Cc1ccc(C(=O)C(c2c[nH]c3ccccc23)c2c[nH]c3ccccc23)cc1` as the compound, how does the GI50 (786-0 renal) read?
The GI50 was 12.9 µM.

And the TGI (786-0 renal)?
Its TGI is 29.1 µM.

And the GI50 (A498 renal)?
The GI50 was 20.5 µM.

And the TGI (A498 renal)?
The TGI was 35.9 µM.

What about the GI50 (A549 NSCLC) of the same compound?
Its GI50 is 15 µM.

What about the TGI (A549 NSCLC) of the same compound?
The TGI was 33.1 µM.

And the GI50 (ACHN renal)?
The GI50 was 10.9 µM.

And the TGI (ACHN renal)?
The TGI was 22.8 µM.

What about the GI50 (BT-549 breast) of the same compound?
The GI50 was 12.8 µM.

And the TGI (BT-549 breast)?
The TGI was 26.5 µM.

What about the GI50 (CAKI-1 renal) of the same compound?
The GI50 was 9.39 µM.

And the TGI (CAKI-1 renal)?
Its TGI is 21.4 µM.

What about the GI50 (CCRF-CEM leukemia) of the same compound?
The GI50 was 3.02 µM.

And the TGI (CCRF-CEM leukemia)?
The TGI was > 100 µM.

What about the GI50 (COLO 205 colon) of the same compound?
Its GI50 is 17.1 µM.

And the TGI (COLO 205 colon)?
Its TGI is 33 µM.

And the GI50 (DU-145 prostate)?
The GI50 was 14.4 µM.

What about the TGI (DU-145 prostate) of the same compound?
Its TGI is 27.8 µM.

And the GI50 (EKVX NSCLC)?
The GI50 was 13.7 µM.

And the TGI (EKVX NSCLC)?
Its TGI is 27 µM.

What about the GI50 (HCC-2998 colon) of the same compound?
The GI50 was 13.7 µM.

What about the TGI (HCC-2998 colon) of the same compound?
Its TGI is 27 µM.

What about the GI50 (HCT-116 colon) of the same compound?
Its GI50 is 3.76 µM.

What about the TGI (HCT-116 colon) of the same compound?
The TGI was 15.2 µM.

What about the GI50 (HCT-15 colon) of the same compound?
The GI50 was 4.73 µM.

And the TGI (HCT-15 colon)?
The TGI was 17.6 µM.

And the GI50 (HL-60(TB) leukemia)?
The GI50 was 6.82 µM.

What about the TGI (HL-60(TB) leukemia) of the same compound?
The TGI was 38.2 µM.

And the GI50 (HOP-62 NSCLC)?
Its GI50 is 18 µM.

And the TGI (HOP-62 NSCLC)?
The TGI was 42.1 µM.

And the GI50 (HOP-92 NSCLC)?
Its GI50 is 16.3 µM.

What about the TGI (HOP-92 NSCLC) of the same compound?
The TGI was 33.3 µM.

What about the GI50 (HS 578T breast) of the same compound?
Its GI50 is 16.6 µM.

What about the TGI (HS 578T breast) of the same compound?
The TGI was 47.1 µM.

And the GI50 (HT29 colon)?
Its GI50 is 6.98 µM.

And the TGI (HT29 colon)?
The TGI was 22.1 µM.

What about the GI50 (IGROV1 ovarian) of the same compound?
Its GI50 is 11.7 µM.

What about the TGI (IGROV1 ovarian) of the same compound?
Its TGI is 26.5 µM.

What about the GI50 (K-562 leukemia) of the same compound?
The GI50 was 3.88 µM.

And the TGI (K-562 leukemia)?
Its TGI is > 100 µM.

What about the GI50 (KM12 colon) of the same compound?
The GI50 was 16.7 µM.

And the TGI (KM12 colon)?
The TGI was 31.1 µM.

What about the GI50 (LOX IMVI melanoma) of the same compound?
The GI50 was 3.21 µM.

What about the TGI (LOX IMVI melanoma) of the same compound?
The TGI was 13.8 µM.

What about the GI50 (M14 melanoma) of the same compound?
Its GI50 is 12.6 µM.

And the TGI (M14 melanoma)?
Its TGI is 29.1 µM.

What about the GI50 (MALME-3M melanoma) of the same compound?
The GI50 was 16 µM.

And the TGI (MALME-3M melanoma)?
Its TGI is 31.2 µM.

And the GI50 (MCF7 breast)?
Its GI50 is 3.77 µM.

And the TGI (MCF7 breast)?
Its TGI is 15.7 µM.

And the GI50 (MDA-MB-231 breast)?
Its GI50 is 14.1 µM.

What about the TGI (MDA-MB-231 breast) of the same compound?
Its TGI is 31 µM.

What about the GI50 (MDA-MB-435) of the same compound?
The GI50 was 15.1 µM.

And the TGI (MDA-MB-435)?
The TGI was 29.7 µM.

What about the GI50 (MDA-MB-468 breast) of the same compound?
Its GI50 is 14.1 µM.

What about the TGI (MDA-MB-468 breast) of the same compound?
The TGI was 29 µM.

What about the GI50 (MOLT-4 leukemia) of the same compound?
The GI50 was 3.95 µM.

And the TGI (MOLT-4 leukemia)?
The TGI was 80.4 µM.

What about the GI50 (NCI-H226 lung) of the same compound?
The GI50 was 13.8 µM.

What about the TGI (NCI-H226 lung) of the same compound?
Its TGI is 29.4 µM.

And the GI50 (NCI-H23 lung)?
The GI50 was 11.5 µM.

What about the TGI (NCI-H23 lung) of the same compound?
Its TGI is 25.9 µM.

What about the GI50 (NCI-H460 lung) of the same compound?
Its GI50 is 11.2 µM.

And the TGI (NCI-H460 lung)?
Its TGI is 28.7 µM.

What about the GI50 (NCI-H522 lung) of the same compound?
The GI50 was 10.7 µM.

What about the TGI (NCI-H522 lung) of the same compound?
Its TGI is 24.1 µM.

And the GI50 (NCI/ADR-RES ovarian)?
Its GI50 is 13.1 µM.

What about the TGI (NCI/ADR-RES ovarian) of the same compound?
Its TGI is 32.2 µM.

And the GI50 (OVCAR-3 ovarian)?
The GI50 was 11.3 µM.

And the TGI (OVCAR-3 ovarian)?
The TGI was 23.6 µM.

What about the GI50 (OVCAR-4 ovarian) of the same compound?
Its GI50 is 13.2 µM.

And the TGI (OVCAR-4 ovarian)?
The TGI was 28.2 µM.

What about the GI50 (OVCAR-5 ovarian) of the same compound?
Its GI50 is 14.7 µM.

And the TGI (OVCAR-5 ovarian)?
The TGI was 29 µM.

And the GI50 (OVCAR-8 ovarian)?
Its GI50 is 16.7 µM.

What about the TGI (OVCAR-8 ovarian) of the same compound?
Its TGI is 34.1 µM.

What about the GI50 (PC-3 prostate) of the same compound?
The GI50 was 6.96 µM.

What about the TGI (PC-3 prostate) of the same compound?
Its TGI is 28.3 µM.

And the GI50 (RPMI-8226 leukemia)?
Its GI50 is 8.31 µM.

What about the TGI (RPMI-8226 leukemia) of the same compound?
Its TGI is > 100 µM.

And the GI50 (RXF 393 renal)?
Its GI50 is 12.5 µM.

And the TGI (RXF 393 renal)?
The TGI was 29.6 µM.

What about the GI50 (SF-268 CNS) of the same compound?
Its GI50 is 10.6 µM.

And the TGI (SF-268 CNS)?
Its TGI is 25.4 µM.

And the GI50 (SF-295 CNS)?
Its GI50 is 14.8 µM.

What about the TGI (SF-295 CNS) of the same compound?
The TGI was 28.1 µM.

And the GI50 (SF-539 CNS)?
The GI50 was 15.2 µM.

And the TGI (SF-539 CNS)?
Its TGI is 29 µM.

What about the GI50 (SK-MEL-2 melanoma) of the same compound?
The GI50 was 14.5 µM.

And the TGI (SK-MEL-2 melanoma)?
The TGI was 28.7 µM.

And the GI50 (SK-MEL-28 melanoma)?
Its GI50 is 14.5 µM.

And the TGI (SK-MEL-28 melanoma)?
Its TGI is 28.1 µM.

What about the GI50 (SK-MEL-5 melanoma) of the same compound?
Its GI50 is 15.5 µM.

And the TGI (SK-MEL-5 melanoma)?
The TGI was 29.2 µM.

And the GI50 (SK-OV-3 ovarian)?
The GI50 was 15.9 µM.

And the TGI (SK-OV-3 ovarian)?
Its TGI is 33 µM.

What about the GI50 (SN12C renal) of the same compound?
The GI50 was 11.1 µM.

What about the TGI (SN12C renal) of the same compound?
The TGI was 24.2 µM.

And the GI50 (SNB-19 CNS)?
Its GI50 is 16.9 µM.

What about the TGI (SNB-19 CNS) of the same compound?
The TGI was 31.4 µM.

And the GI50 (SNB-75 CNS)?
Its GI50 is 7.91 µM.

What about the TGI (SNB-75 CNS) of the same compound?
The TGI was 21 µM.

And the GI50 (SR leukemia)?
Its GI50 is 11 µM.

What about the TGI (SR leukemia) of the same compound?
Its TGI is 77.6 µM.

What about the GI50 (SW-620 colon) of the same compound?
Its GI50 is 3.55 µM.

What about the TGI (SW-620 colon) of the same compound?
Its TGI is 13.5 µM.

And the GI50 (T-47D breast)?
Its GI50 is 9.57 µM.

What about the TGI (T-47D breast) of the same compound?
Its TGI is 28.4 µM.

What about the GI50 (TK-10 renal) of the same compound?
Its GI50 is 24.8 µM.

And the TGI (TK-10 renal)?
The TGI was 40.6 µM.

And the GI50 (U251 CNS)?
The GI50 was 15.9 µM.

And the TGI (U251 CNS)?
Its TGI is 30.9 µM.

And the GI50 (UACC-257 melanoma)?
Its GI50 is 13.2 µM.

And the TGI (UACC-257 melanoma)?
The TGI was 26.8 µM.

And the GI50 (UACC-62 melanoma)?
Its GI50 is 13.9 µM.

What about the TGI (UACC-62 melanoma) of the same compound?
The TGI was 27.9 µM.

What about the GI50 (UO-31 renal) of the same compound?
The GI50 was 11.3 µM.

And the TGI (UO-31 renal)?
The TGI was 23.4 µM.
